Measured values as given in patent US9073940B2, “Tricyclic pyrazol amine derivatives” (MERCK SERONO SA, priority 2009, dated 2015).
pIC50: −log10 of the molar value.

Tested on: 4 PI3K isoforms (Human recombinant GST-PI3K)
Test: PI3K scintillation proximity assay, best IC50 obtained with the four isoforms (alpha, beta, delta, gamma)
Type: biochemical
Details: best IC50 obtained with the four isoforms of PI3K; read-out: Best potency measured on the 4 PI3K isoforms

Compound	pIC50
O=C(c1nn([C@H]2CCCN(C3CCCOC3)C2)c2c1CS(=O)(=O)c1c(F)cccc1-2)N1CCOCC1 (stereo in doubt) [Example 425, 6-Fluoro-3-(morpholin-4-ylcarbonyl)-1-[1-(tetrahydro-2H-pyran-3-yl)piperidin-3-yl]-1,4-dihydrothiochromeno[4,3-c]pyrazole 5,5-dioxide]	7.60
O=C(c1nn([C@H]2CCCN(C3CCOCC3)C2)c2c1CS(=O)(=O)c1c(F)cccc1-2)N1CCOCC1 (stereo in doubt) [Example 427, 6-fluoro-3-(morpholin-4-ylcarbonyl)-1-[1-(tetrahydro-2H-pyran-4-yl)piperidin-3-yl]-1,4-dihydrothiochromeno[4,3-c]pyrazole 5,5-dioxide]	7.89
COCCN(CCOC)CCN1CCC[C@H](n2nc(C(=O)N3CCOCC3)c3c2-c2ccccc2S(=O)(=O)C3)C1 (stereo in doubt) [Example 448, 2-methoxy-N-(2-methoxyethyl)-N-(2-{3-[3-(morpholin-4-ylcarbonyl)-5,5-dioxidothiochromeno[4,3-c]pyrazol-1(4H)-yl]piperidin-1-yl}ethyl)ethanamine]	6.95
O=C(c1nn([C@H]2CCCN(CCN3CCCC3)C2)c2c1CS(=O)(=O)c1ccccc1-2)N1CCOCC1 (stereo in doubt) [Example 450, 3-(morpholin-4-ylcarbonyl)-1-[1-(2-pyrrolidin-1-ylethyl)piperidin-3-yl]-1,4-dihydrothiochromeno[4,3-c]pyrazole 5,5-dioxide]	8.15
CN1CCC(N2CCC[C@H](n3nc(C(=O)N4CCOCC4)c4c3-c3ccccc3S(=O)(=O)C4)C2)CC1 (stereo in doubt) [Example 451, 1-[1′-methyl-1,4′-bipiperidin-3-yl]-3-(morpholin-4-ylcarbonyl)-1,4-dihydrothiochromeno[4,3-c]pyrazole 5,5-dioxide]	7.55
COC1CCN(CCN2CCC[C@H](n3nc(C(=O)N4CCOCC4)c4c3-c3ccccc3S(=O)(=O)C4)C2)CC1 (stereo in doubt) [Example 460, 1-{1-[2-(4-methoxypiperidin-1-yl)ethyl]piperidin-3-yl}-3-(morpholin-4-ylcarbonyl)-1,4-dihydrothiochromeno[4,3-c]pyrazole 5,5-dioxide]	7.68
O=C(c1nn([C@H]2CCCN(CCN3CCC(O)CC3)C2)c2c1CS(=O)(=O)c1ccccc1-2)N1CCOCC1 (stereo in doubt) [Example 463, 1-(2-{3-[3-(morpholin-4-ylcarbonyl)-5,5-dioxidothiochromeno[4,3-c]pyrazol-1(4H)-yl]piperidin-1-yl}ethyl)piperidin-4-ol]	7.74
O=C(c1nn([C@H]2CCCN(CCN3CC(F)(F)C3)C2)c2c1CS(=O)(=O)c1c(F)cccc1-2)N1CCOCC1 (stereo in doubt) [Example 464, 1-{1-[2-(3,3-difluoroazetidin-1-yl)ethyl]piperidin-3-yl}-6-fluoro-3-(morpholin-4-ylcarbonyl)-1,4-dihydrothiochromeno[4,3-c]pyrazole 5,5-dioxide]	7.66
O=C(c1nn([C@H]2CCCN(CCN3CCCCC3)C2)c2c1CS(=O)(=O)c1ccccc1-2)N1CCOCC1 (stereo in doubt) [Example 465, 3-(morpholin-4-ylcarbonyl)-1-[1-(2-piperidin-1-ylethyl)piperidin-3-yl]-1,4-dihydrothiochromeno[4,3-c]pyrazole 5,5-dioxide]	7.82
O=C(c1nn([C@H]2CCCN(Cc3cccnc3)C2)c2c1CS(=O)(=O)c1ccccc1-2)N1CCOCC1 (stereo in doubt) [Example 466, 3-(morpholin-4-ylcarbonyl)-1-[1-(pyridin-3-ylmethyl)piperidin-3-yl]-1,4-dihydrothiochromeno[4,3-c]pyrazole 5,5-dioxide]	7.07
O=C(c1nn([C@H]2CCCN(c3ccncc3)C2)c2c1CS(=O)(=O)c1ccccc1-2)N1CCOCC1 (stereo in doubt) [Example 468, 3-(morpholin-4-ylcarbonyl)-1-[1-pyridin-4-ylpiperidin-3-yl]-1,4-dihydrothiochromeno[4,3-c]pyrazole 5,5-dioxide]	6.88
Cc1cccc2c1S(=O)(=O)Cc1c(C(=O)N3CCOCC3)nn([C@H]3CCCN(CCN4CCOCC4)C3)c1-2 (stereo in doubt) [Example 471, 6-methyl-3-(morpholin-4-ylcarbonyl)-1-[1-(2-morpholin-4-ylethyl)piperidin-3-yl]-1,4-dihydrothiochromeno[4,3-c]pyrazole 5,5-dioxide]	7.31
O=C(c1nn([C@H]2CCCN(Cc3ccncc3)C2)c2c1CS(=O)(=O)c1ccccc1-2)N1CCOCC1 (stereo in doubt) [Example 473, 3-(morpholin-4-ylcarbonyl)-1-[1-(pyridin-4-ylmethyl)piperidin-3-yl]-1,4-dihydrothiochromeno[4,3-c]pyrazole 5,5-dioxide]	7.35
COC1CCN(CCN2CCC[C@H](n3nc(C(=O)N4CCOCC4)c4c3-c3ccc(F)cc3S(=O)(=O)C4)C2)CC1 (stereo in doubt) [Example 474, 7-fluoro-1-{1-[2-(4-methoxypiperidin-1-yl)ethyl]piperidin-3-yl}-3-(morpholin-4-ylcarbonyl)-1,4-dihydrothiochromeno[4,3-c]pyrazole 5,5-dioxide]	7.89
COc1cccc2c1S(=O)(=O)Cc1c(C(=O)N3CCOCC3)nn(C)c1-2 [Example 2, 6-methoxy-1-methyl-3-(morpholin-4-ylcarbonyl)-1,4-dihydrothiochromeno[4,3-c]pyrazole 5,5-dioxide]	5.76
O=C(c1n[nH]c2c1CS(=O)(=O)c1ccccc1-2)N1CCOCC1 [Example 3, 3-(morpholin-4-ylcarbonyl)-2,4-dihydrothiochromeno[4,3-c]pyrazole 5,5-dioxide]	5.54
COc1ccc2c(c1)S(=O)(=O)Cc1c(C(=O)N3CCOCC3)nn(C)c1-2 [Example 4, 7-methoxy-1-methyl-3-(morpholin-4-ylcarbonyl)-1,4-dihydrothiochromeno[4,3-c]pyrazole 5,5-dioxide]	6.37
COc1ccc2c(c1)S(=O)(=O)Cc1c(C(=O)N3CCOCC3)nn(-c3ccccc3)c1-2 [Example 5, 7-methoxy-3-(morpholin-4-ylcarbonyl)-1-phenyl-1,4-dihydrothiochromeno[4,3-c]pyrazole 5,5-dioxide]	6.46
Cc1cccc(-n2nc(C(=O)N3CCOCC3)c3c2-c2ccccc2S(=O)(=O)C3)c1 [Example 6, 1-(3-methylphenyl)-3-(morpholin-4-ylcarbonyl)-1,4-dihydrothiochromeno[4,3-c]pyrazole 5,5-dioxide]	6.03
Cc1ccc(F)cc1-n1nc(C(=O)N2CCOCC2)c2c1-c1ccccc1S(=O)(=O)C2 [Example 8, 1-(5-fluoro-2-methylphenyl)-3-(morpholin-4-ylcarbonyl)-1,4-dihydrothiochromeno[4,3-c]pyrazole 5,5-dioxide]	5.38

The next lines start with the values.

pIC50	Compound
7.41	O=C(CCN1CCC[C@H](n2nc(C(=O)N3CCOCC3)c3c2-c2ccccc2S(=O)(=O)C3)C1)N1CC(F)(F)C1 (stereo in doubt) [Example 429, 1-{1-[3-(3,3-difluoroazetidin-1-yl)-3-oxopropyl]piperidin-3-yl}-3-(morpholin-4-ylcarbonyl)-1,4-dihydrothiochromeno[4,3-c]pyrazole 5,5-dioxide]
7.35	COCCN(C)CCN1CCC[C@H](n2nc(C(=O)N3CCOCC3)c3c2-c2ccccc2S(=O)(=O)C3)C1 (stereo in doubt) [Example 438, 2-methoxy-N-methyl-N-(2-{3-[3-(morpholin-4-ylcarbonyl)-5,5-dioxidothiochromeno[4,3-c]pyrazol-1(4H)-yl]piperidin-1-yl}ethyl)ethanamine]
7.60	COC1CCN(CCN2CCC[C@H](n3nc(C(=O)N4CCOCC4)c4c3-c3ccccc3S(=O)(=O)C4)C2)C1 (stereo in doubt) [Example 439, 1-{1-[2-(3-methoxypyrrolidin-1-yl)ethyl]piperidin-3-yl}-3-(morpholin-4-ylcarbonyl)-1,4-dihydrothiochromeno[4,3-c]pyrazole 5,5-dioxide]
7.39	O=C(CCN1CCC[C@H](n2nc(C(=O)N3CCOCC3)c3c2-c2ccccc2S(=O)(=O)C3)C1)N1CCC(F)(F)C1 (stereo in doubt) [Example 441, 1-{1-[3-(3,3-difluoropyrrolidin-1-yl)-3-oxopropyl]piperidin-3-yl}-3-(morpholin-4-ylcarbonyl)-1,4-dihydrothiochromeno[4,3-c]pyrazole 5,5-dioxide]
6.98	CC(=O)NCCN1CCC[C@H](n2nc(C(=O)N3CCOCC3)c3c2-c2ccccc2S(=O)(=O)C3)C1 (stereo in doubt) [Example 444, N-(2-{3-[3-(morpholin-4-ylcarbonyl)-5,5-dioxidothiochromeno[4,3-c]pyrazol-1(4H)-yl]piperidin-1-yl}ethyl)acetamide]
7.47	COCCNCCN1CCC[C@H](n2nc(C(=O)N3CCOCC3)c3c2-c2ccccc2S(=O)(=O)C3)C1 (stereo in doubt) [Example 445, 2-methoxy-N-(2-{3-[3-(morpholin-4-ylcarbonyl)-5,5-dioxidothiochromeno[4,3-c]pyrazol-1(4H)-yl]piperidin-1-yl}ethyl)ethanamine]
7.70	COC1CN(CCN2CCC[C@H](n3nc(C(=O)N4CCOCC4)c4c3-c3ccccc3S(=O)(=O)C4)C2)C1 (stereo in doubt) [Example 446, 1-{1-[2-(3-methoxyazetidin-1-yl)ethyl]piperidin-3-yl}-3-(morpholin-4-ylcarbonyl)-1,4-dihydrothiochromeno[4,3-c]pyrazole 5,5-dioxide]
6.58	COCC(=O)N1CCC[C@H](n2nc(C(=O)N3CCOCC3)c3c2-c2ccccc2S(=O)(=O)C3)C1 (stereo in doubt) [Example 447, 1-[1-(methoxyacetyl)piperidin-3-yl]-3-(morpholin-4-ylcarbonyl)-1,4-dihydrothiochromeno[4,3-c]pyrazole 5,5-dioxide]
7.74	CN1CCCC(N2CCC[C@H](n3nc(C(=O)N4CCOCC4)c4c3-c3ccccc3S(=O)(=O)C4)C2)C1 (stereo in doubt) [Example 459, 1-[1′-methyl-1,3′-bipiperidin-3-yl]-3-(morpholin-4-ylcarbonyl)-1,4-dihydrothiochromeno[4,3-c]pyrazole 5,5-dioxide]
